# Measured values as given in US9181183B2, “Prostaglandin D synthase inhibitory piperidine compounds” (Taiho Pharmaceutical Co., Ltd., priority 2010, dated 2015).
# Molecular target: human H-PGDS (Homo sapiens, UniProt O60760)
# Test: Hematopoietic prostaglandin D synthase (H-PGDS) inhibiting action, [14C]PGH2 to PGD2 conversion, TLC radioassay
# Type: biochemical
# Conditions: compound 0.1 μM; inhibition rate relative to solvent control group; [14C] prostaglandin H2 10 μM, 25° C.
# Method: The test was carried out according to the method of Urade, Y. et al. (J. Biol. Chem., 262, 3820-3825, (1987)). More specifically, a reaction mixture (49 μL) containing 100 mM Tris-HCl (pH 8.0), 1 mM reduced form glutathione, 0.1 mg/mL γ-globulin, human H-PGDS (q.s.), and a compound (0.1 μM) was preincubated at 25° C. for 5 minutes. A DMSO solution (final concentration: 1%) was added to the solvent control group. Subsequently, 1 μL of [^14C] prostaglandin H2 (final concentration: 10 μM) was added to start the reaction. One minute after the start of the reaction, 250 μL of a reaction stopper solution (diethylether/methanol/1M citric acid (30/4/1)) cooled with ice was added to stop the reaction. After the reaction was stopped, 50 μL of the upper layer portion (organic solvent phase) was applied to a TLC plate and developed at −20° C. for 45 minutes (developing solvent: diethylether/methanol/acetic acid (90/2/1)). After the TLC plate was dried and exposed to an imaging plate for 1 to 24 hours, the radioactivity corresponding to prostaglandin D2 (PGD2) was analyzed using an image analyzer (produced by Fujifilm Corporation). The area (%) occupied by the PGD2 band per lane and the inhibition rate (%) of each Example compound at 0.1 μM relative to the control group in each experiment were calculated.
# Chain of human H-PGDS (O60760 whole entry): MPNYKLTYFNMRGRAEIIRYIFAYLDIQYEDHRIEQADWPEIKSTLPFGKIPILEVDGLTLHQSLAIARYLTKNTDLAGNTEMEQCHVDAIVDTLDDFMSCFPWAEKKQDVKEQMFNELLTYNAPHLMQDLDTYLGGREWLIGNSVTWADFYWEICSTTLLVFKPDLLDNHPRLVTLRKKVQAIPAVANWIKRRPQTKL
row,Compound,H-PGDS inh. (% at 0.1 μM) [%]
1,N-(4-(2-(4-(pyridin-2-ylmethylene)piperidine-1-carboxamido)thiazol-5-yl)phenyl)morpholin-1-yl-carboxamide [Example 25],56.4
2,"Phenyl 4-(4-(2,5-difluorobenzylidene)piperidine-1-carboxamido) piperidine-1-carboxylate [Example 39]",62.9
3,N-(5-(4-(cyclopropylcarboxamido)phenyl)thiazol-2-yl)-4-(pyridin-2-ylmethylene)piperidine-1-carboxamide [Example 21],58.7
4,N-(6-(4-morpholin-1-yl-carbonylphenyl)-benzo[d]thiazol-2-yl)-4-(pyridin-2-ylmethylene)-piperidine-1-carboxamide [Example 2],64.4

# Same assay, conditions: compound 0.1 μM; inhibition rate relative to solvent control group; [14C] prostaglandin H2 10 μM, 25° C.; read-out: H-PGDS inh. (% at 0.1 μM)
row,Compound,inhibition at 0.1 µM [%]
1,"O=C(Nc1nc2ccc(-c3ccncc3)cc2s1)N1CCC(=Cc2ccccn2)CC1 [Example 5, N-(6-(pyridin-4-yl)-benzo[d]thiazol-2-yl)-4-(pyridin-2-ylmethylene)-piperidine-1-carboxamide]",77.8
2,"O=C(Nc1ccon1)N1CCC(NC(=O)N2CCC(=Cc3cc(F)ccc3F)CC2)CC1 [Example 67, 4-(2,5-difluorobenzylidene)-N-(1-(isoxazol-3-ylcarbamoyl)piperidin-4-yl)piperidine-1-carboxamide]",51.7
3,"O=C(NC1CCN(C(=O)C2CCC2)CC1)N1CCC(=Cc2cc(F)ccc2F)CC1 [Example 50, N-(1-(cyclobutanecarbonyl)piperidin-4-yl)-4-(2,5-difluorobenzylidene)piperidine-1-carboxamide]",59.9
4,"O=C(NC1CCN(C(=O)c2ccccc2)CC1)N1CCC(=Cc2cc(F)ccc2F)CC1 [Example 47, N-(1-benzoylpiperidin-4-yl)-4-(2,5-difluorobenzylidene)piperidine-1-carboxamide]",62
5,"CS(=O)(=O)NC(=O)c1ccc(-c2ccc(NC(=O)N3CCC(=Cc4ccccn4)CC3)cn2)cc1 [Example 32, N-(6-(4-(methylsulfonylcarbamoyl)phenyl)pyridin-3-yl)-4-(pyridin-2-ylmethylene)piperidine-1-carboxamide]",76.1
6,"O=C(NC1CCN(CC(F)(F)F)CC1)N1CCC(=Cc2cc(F)ccc2F)CC1 [Example 35, 4-(2,5-difluorobenzylidene)-N-(1-(2,2,2-trifluoroethyl)piperidin-4-yl)piperidine-1-carboxamide]",77.2
7,"CS(=O)(=O)NC(=O)c1ccc(-c2cnc(NC(=O)N3CCC(=Cc4ccccn4)CC3)s2)cc1 [Example 23, N-(5-(4-(methylsulfonylcarbamoyl)phenyl)thiazol-2-yl)-4-(pyridin-2-ylmethylene)piperidine-1-carboxamide]",65.9
8,"O=C(NC1CCN(C(=O)c2cccc(F)c2)CC1)N1CCC(=Cc2cc(F)ccc2F)CC1 [Example 61, 4-(2,5-difluorobenzylidene)-N-(1-(3-fluorobenzoyl)piperidin-4-yl)piperidine-1-carboxamide]",67.7
9,"CC(C)C(=O)Nc1ccc(NC(=O)N2CCC(=Cc3cc(F)ccc3F)CC2)cc1 [Example 77, 4-(2,5-difluorobenzylidene)-N-(4-isobutyramidophenyl)piperidine-1-carboxamide]",68.1
10,"Cc1cccnc1C(=O)N1CCC(NC(=O)N2CCC(=Cc3cc(F)ccc3F)CC2)CC1 [Example 62, 4-(2,5-difluorobenzylidene)-N-(1-(3-methylpicolinoyl)piperidin-4-yl)piperidine-1-carboxamide]",54.2
11,"O=C(O)c1ccc(-c2cnc(NC(=O)N3CCC(=Cc4ccccn4)CC3)s2)nc1 [Example 27, 6-(2-(4-(pyridin-2-ylmethylene)piperidine-1-carboxamido)thiazol-5-yl)nicotinic acid]",50.2
12,"CC(F)(F)C(=O)N1CCC(NC(=O)N2CCC(=Cc3cc(F)ccc3F)CC2)CC1 [Example 40, 4-(2,5-difluorobenzylidene)-N-(1-(2,2-difluoropropanoyl)piperidin-4-yl)piperidine-1-carboxamide]",71.4
13,"O=C(NC1CCN(C(=O)C(F)F)CC1)N1CCC(=Cc2cc(F)ccc2F)CC1 [Example 43, N-(1-(2,2-difluoroacetyl)piperidin-4-yl)-4-(2,5-difluorobenzylidene)piperidine-1-carboxamide]",68
14,"O=C(Nc1cnc2ccccc2c1)N1CCC(=Cc2ccccn2)CC1 [Example 85, 4-(pyridin-2-ylmethylene)-N-(quinolin-3-yl)piperidine-1-carboxamide]",35
15,"O=C(NC1CCN(C(=O)N2CCCCC2)CC1)N1CCC(=Cc2cc(F)ccc2F)CC1 [Example 57, 4-(2,5-difluorobenzylidene)-N-(1-(piperidine-1-carbonyl)piperidin-4-yl)piperidine-1-carboxamide]",62.3
16,"O=C(O)c1ccc(-c2ncc(NC(=O)N3CCC(=Cc4ccccn4)CC3)cn2)cc1 [Example 33, 4-(5-(4-(pyridin-2-ylmethylene)piperidine-1-carboxamido)pyrimidin-2-yl)benzoic acid]",50
17,"O=C(NC1CCN(c2ccc(CCn3ccnn3)cc2)CC1)N1CCC(=Cc2cc(F)ccc2F)CC1 [Example 34, N-(1-(4-(2-(1H-1,2,3-triazol-1-yl)ethyl)phenyl)piperidin-4-yl)-4-(2,5-difluorobenzylidene)piperidine-1-carboxamide]",77.8
18,"N#Cc1cccc(CN2CCC(NC(=O)N3CCC(=Cc4cc(F)ccc4F)CC3)CC2)c1 [Example 37, N-(1-(3-cyanobenzyl)piperidin-4-yl)-4-(2,5-difluorobenzylidene)piperidine-1-carboxamide]",64.8
19,"Cn1cccc1C(=O)N1CCC(NC(=O)N2CCC(=Cc3cc(F)ccc3F)CC2)CC1 [Example 55, 4-(2,5-difluorobenzylidene)-N-(1-(1-methyl-1H-pyrrole-2-carbonyl)piperidin-4-yl)piperidine-1-carboxamide]",70.9
20,"O=C(NC1CCN(C(=O)C2CCCC2)CC1)N1CCC(=Cc2cc(F)ccc2F)CC1 [Example 53, N-(1-(cyclopentanecarbonyl)piperidin-4-yl)-4-(2,5-difluorobenzylidene)piperidine-1-carboxamide]",69
21,"O=C(NC1CC1)c1ccc(-c2ccc(NC(=O)N3CCC(=Cc4ccccn4)CC3)cn2)cc1 [Example 30, N-(6-(4-(cyclopropylcarbamoyl)phenyl)pyridin-3-yl)-4-(pyridin-2-ylmethylene)piperidine-1-carboxamide]",67.1
22,"O=C(Nc1ncc(CN2CCOCC2)s1)N1CCC(=Cc2cc(F)ccc2F)CC1 [Example 84, 4-(2,5-difluorobenzylidene)-N-(5-(morpholinomethyl)thiazol-2-yl)piperidine-1-carboxamide]",78.5
23,"O=C(NS(=O)(=O)c1ccccc1)c1ccc(-c2cnc(NC(=O)N3CCC(=Cc4ccccn4)CC3)s2)cc1 [Example 24, N-(5-(4-(phenylsulfonylcarbamoyl)phenyl)thiazol-2-yl)-4-(pyridin-2-ylmethylene)piperidine-1-carboxamide]",68.2
24,"O=C(NC1CCN(C(=O)c2ccccn2)CC1)N1CCC(=Cc2cc(F)ccc2F)CC1 [Example 51, 4-(2,5-difluorobenzylidene)-N-(1-picolinoylpiperidin-4-yl)piperidine-1-carboxamide]",50
